Test results: patent US20250290117A1, “MOLECULAR PHENOTYPIC ANTIMICROBIAL SUSCEPTIBILITY TESTING” (priority 2024, published 2025)

Assays:
Format in all cases: cell-based
Escherichia coli [1] = assay: Traditional culture-based antimicrobial susceptibility test
How it was run: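 E. coli isolates underwent conventional growth, isolation and exposure to antimicrobials, giving a culture-based susceptibility call for each agent.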

Escherichia coli [2] = assay: Molecular phenotypic antimicrobial susceptibility test (extraction or DNA purification prior to PCR)
How it was run: (§1)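 Patient specimens in boric acid preservative were culture-incubated, diluted to 0.5 McFarland and exposed for 12-16 hours to antimicrobials in broth at their sensitivity breakpoint concentration(s), with a no-drug well for pathogen load. Growth was then measured by semi-quantitative PCR, either after DNA purification (e.g. magnetic beads) or directly after lysis-buffer treatment without extraction.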

[3] = test system: pathogens of clinical samples; assay: Molecular phenotypic antimicrobial susceptibility test of clinical samples, extraction DNA purification step prior to PCR (Table 6)
How it was run: as §1

[4] = test system: pathogens of clinical samples; assay: Molecular phenotypic antimicrobial susceptibility test of clinical samples, direct PCR without a separate DNA purification step (Table 6)
How it was run: as §1

[5] = E. coli, clinical sample of r10-r24
[6] = E. coli, clinical sample of r10-r24, Ct Control Avg 18.112
[7] = E. coli, clinical sample of r158-r172
[8] = E. coli, clinical sample of r158-r172, Ct Control Avg 20.146
[9] = K. aerogenes, clinical sample of r136-r150
[10] = K. aerogenes, clinical sample of r136-r150, Ct Control Avg 19.994
[11] = K. pneumoniae, clinical sample of r121-r135
[12] = K. pneumoniae, clinical sample of r121-r135, Ct Control Avg 24.272
[13] = M. morganii, clinical sample of r55-r69
[14] = M. morganii, clinical sample of r55-r69, Ct Control Avg 28.86
[15] = M. morganii, clinical sample of r70-r84
[16] = M. morganii, clinical sample of r70-r84, Ct Control Avg 27.053
[17] = P. mirabilis, clinical sample of r25-r39
[18] = P. mirabilis, clinical sample of r25-r39, Ct Control Avg 26.064
[19] = P. mirabilis, clinical sample of r40-r54
[20] = P. mirabilis, clinical sample of r40-r54, Ct Control Avg 26.987
[21] = E. coli, clinical sample of r10-r24, Ct control avg 12.97
[22] = E. coli, clinical sample of r158-r172, Ct control avg 12.894
[23] = K. aerogenes, clinical sample of r136-r150, Ct control avg 13.854
[24] = K. pneumoniae, clinical sample of r121-r135, Ct control avg […]
[25] = M. morganii, clinical sample of r55-r69, Ct control avg 12.09
[26] = M. morganii, clinical sample of r70-r84, Ct control avg 11.677
[27] = P. mirabilis, clinical sample of r25-r39, Ct control avg 11.801
[28] = P. mirabilis, clinical sample of r40-r54, Ct control avg 10.06
[29] = S. aureus, clinical sample of r85-r92

C[C@@H](O)[C@H]1C(=O)N2C(C(=O)O)=C(S[C@@H]3CN[C@H](C(=O)N(C)C)C3)[C@H](C)[C@H]12 [Meropenem]
Traditional Culture Result (Escherichia coli [1]; E. coli isolate 1 (Table 3)): Sensitive
Traditional Culture Result (Escherichia coli [1]; E. coli isolate 2 (Table 3)): Sensitive
Traditional Culture Result (Escherichia coli [1]; E. coli isolate 3 (Table 3)): Sensitive
Traditional Culture Result (Escherichia coli [1]; E. coli isolate JJ1887): Sensitive
Ct at Sensitive Breakpoint (Escherichia coli [2]; E. coli isolate 1, Ct at control (average) 21.238): 33.626
Molecular Antimicrobial Susceptibility Result (Escherichia coli [2]; E. coli isolate 1, at sensitive breakpoint): Sensitive (Antimicrobial wells with pathogen load detected below the control wells (typically >2 cycle thresholds later) may be reported as Sensitive)
Ct at Sensitive Breakpoint (Escherichia coli [2]; E. coli isolate 2, Ct at control (average) 21.270): 29.525
Molecular Antimicrobial Susceptibility Result (Escherichia coli [2]; E. coli isolate 2, at sensitive breakpoint): Sensitive (Antimicrobial wells with pathogen load detected below the control wells (typically >2 cycle thresholds later) may be reported as Sensitive)
Ct at Sensitive Breakpoint (Escherichia coli [2]; E. coli isolate 3, Ct at control (average) 22.0995): 23.588
Molecular Antimicrobial Susceptibility Result (Escherichia coli [2]; E. coli isolate 3, at sensitive breakpoint): Sensitive (Antimicrobial wells with pathogen load detected below the control wells (typically >2 cycle thresholds later) may be reported as Sensitive)
Molecular Antibiotic Susceptibility Result [3, 5]: Sensitive (Antimicrobial wells with pathogen load detected below the control wells (typically >2 cycle thresholds later) may be reported as Sensitive)
Ct [3, 6]: 27.07
Molecular Antibiotic Susceptibility Result [3, 7]: Sensitive (Antimicrobial wells with pathogen load detected below the control wells (typically >2 cycle thresholds later) may be reported as Sensitive)
Ct [3, 8]: 30.723
Molecular Antibiotic Susceptibility Result [3, 9]: Sensitive (Antimicrobial wells with pathogen load detected below the control wells (typically >2 cycle thresholds later) may be reported as Sensitive)
Ct [3, 10]: 33.144
Molecular Antibiotic Susceptibility Result [3, 11]: Sensitive (Antimicrobial wells with pathogen load detected below the control wells (typically >2 cycle thresholds later) may be reported as Sensitive)
Ct [3, 12]: 31.816
Molecular Antibiotic Susceptibility Result [3, 13]: Sensitive (Antimicrobial wells with pathogen load detected below the control wells (typically >2 cycle thresholds later) may be reported as Sensitive)
Ct [3, 14]: 37.898
Molecular Antibiotic Susceptibility Result [3, 15]: Sensitive (Antimicrobial wells with pathogen load detected below the control wells (typically >2 cycle thresholds later) may be reported as Sensitive)
Ct [3, 16]: 36.672
Molecular Antibiotic Susceptibility Result [3, 17]: Sensitive (Antimicrobial wells with pathogen load detected below the control wells (typically >2 cycle thresholds later) may be reported as Sensitive)
Ct [3, 18]: 34.223
Molecular Antibiotic Susceptibility Result [3, 19]: Sensitive (Antimicrobial wells with pathogen load detected below the control wells (typically >2 cycle thresholds later) may be reported as Sensitive)
Ct [3, 20]: 35.503
Molecular Antibiotic Susceptibility Result [4, 5]: Sensitive (Antimicrobial wells with pathogen load detected below the control wells (typically >2 cycle thresholds later) may be reported as Sensitive)
Ct [4, 21]: 24.598
Molecular Antibiotic Susceptibility Result [4, 7]: Sensitive (Antimicrobial wells with pathogen load detected below the control wells (typically >2 cycle thresholds later) may be reported as Sensitive)
Ct [4, 22]: 30.093
Molecular Antibiotic Susceptibility Result [4, 9]: Sensitive (Antimicrobial wells with pathogen load detected below the control wells (typically >2 cycle thresholds later) may be reported as Sensitive)
Ct [4, 23]: 28.604
Molecular Antibiotic Susceptibility Result [4, 11]: Sensitive (Antimicrobial wells with pathogen load detected below the control wells (typically >2 cycle thresholds later) may be reported as Sensitive)
Ct [4, 24]: 26.606
Molecular Antibiotic Susceptibility Result [4, 13]: Sensitive (Antimicrobial wells with pathogen load detected below the control wells (typically >2 cycle thresholds later) may be reported as Sensitive)
Ct [4, 25]: 30.024
Molecular Antibiotic Susceptibility Result [4, 15]: Sensitive (Antimicrobial wells with pathogen load detected below the control wells (typically >2 cycle thresholds later) may be reported as Sensitive)
Ct [4, 26]: 29.381
Molecular Antibiotic Susceptibility Result [4, 17]: Sensitive (Antimicrobial wells with pathogen load detected below the control wells (typically >2 cycle thresholds later) may be reported as Sensitive)
Ct [4, 27]: 32.513
Molecular Antibiotic Susceptibility Result [4, 19]: Sensitive (Antimicrobial wells with pathogen load detected below the control wells (typically >2 cycle thresholds later) may be reported as Sensitive)
Ct [4, 28]: 31.805

CO[C@@]1(NC(=O)Cc2cccs2)C(=O)N2C(C(=O)O)=C(COC(N)=O)CS[C@@H]21 [Cefoxitin]
Traditional Culture Result (Escherichia coli [1]; E. coli isolate 4 (Table 3)): Sensitive
Traditional Culture Result (Escherichia coli [1]; E. coli isolate 5 (Table 3)): Sensitive
Ct at Sensitive Breakpoint (Escherichia coli [2]; E. coli isolate 4, Ct at control (average) 17.5733): 24.09
Molecular Antimicrobial Susceptibility Result (Escherichia coli [2]; E. coli isolate 4, at sensitive breakpoint): Sensitive (Antimicrobial wells with pathogen load detected below the control wells (typically >2 cycle thresholds later) may be reported as Sensitive)
Ct at Sensitive Breakpoint (Escherichia coli [2]; E. coli isolate 5, Ct at control (average) 21.0933): 24.72
Molecular Antimicrobial Susceptibility Result (Escherichia coli [2]; E. coli isolate 5, at sensitive breakpoint): Sensitive (Antimicrobial wells with pathogen load detected below the control wells (typically >2 cycle thresholds later) may be reported as Sensitive)
Molecular Antibiotic Susceptibility Result [3, 5]: Sensitive (Antimicrobial wells with pathogen load detected below the control wells (typically >2 cycle thresholds later) may be reported as Sensitive)
Ct [3, 6]: 26.364
Molecular Antibiotic Susceptibility Result [3, 7]: Sensitive (Antimicrobial wells with pathogen load detected below the control wells (typically >2 cycle thresholds later) may be reported as Sensitive)
Ct [3, 8]: 31.631
Molecular Antibiotic Susceptibility Result [3, 9]: Resistant
Ct [3, 10]: 20.635
Molecular Antibiotic Susceptibility Result [3, 11]: Sensitive (Antimicrobial wells with pathogen load detected below the control wells (typically >2 cycle thresholds later) may be reported as Sensitive)
Ct [3, 12]: 32.55
Molecular Antibiotic Susceptibility Result [3, 13]: Sensitive (Antimicrobial wells with pathogen load detected below the control wells (typically >2 cycle thresholds later) may be reported as Sensitive)
Ct [3, 14]: 37.168
Molecular Antibiotic Susceptibility Result [3, 15]: Sensitive (Antimicrobial wells with pathogen load detected below the control wells (typically >2 cycle thresholds later) may be reported as Sensitive)
Ct [3, 16]: 35.243
Molecular Antibiotic Susceptibility Result [3, 17]: Sensitive (Antimicrobial wells with pathogen load detected below the control wells (typically >2 cycle thresholds later) may be reported as Sensitive)
Ct [3, 18]: 29.443
Molecular Antibiotic Susceptibility Result [3, 19]: Sensitive (Antimicrobial wells with pathogen load detected below the control wells (typically >2 cycle thresholds later) may be reported as Sensitive)
Ct [3, 20]: 30.603
Molecular Antibiotic Susceptibility Result [3, 29]: Resistant
Ct ([3]; S. aureus, clinical sample of r85-r92, Ct Control Avg 24.32): 15.037
Molecular Antibiotic Susceptibility Result [4, 5]: Sensitive (Antimicrobial wells with pathogen load detected below the control wells (typically >2 cycle thresholds later) may be reported as Sensitive)
Ct [4, 21]: 25.006
Molecular Antibiotic Susceptibility Result [4, 7]: Sensitive (Antimicrobial wells with pathogen load detected below the control wells (typically >2 cycle thresholds later) may be reported as Sensitive)
Ct [4, 22]: 29.986
Molecular Antibiotic Susceptibility Result [4, 9]: Resistant
Ct [4, 23]: 13.468
Molecular Antibiotic Susceptibility Result [4, 11]: Sensitive (Antimicrobial wells with pathogen load detected below the control wells (typically >2 cycle thresholds later) may be reported as Sensitive)
Ct [4, 24]: 27.384
Molecular Antibiotic Susceptibility Result [4, 13]: Sensitive (Antimicrobial wells with pathogen load detected below the control wells (typically >2 cycle thresholds later) may be reported as Sensitive)
Ct [4, 25]: 29.041
Molecular Antibiotic Susceptibility Result [4, 15]: Sensitive (Antimicrobial wells with pathogen load detected below the control wells (typically >2 cycle thresholds later) may be reported as Sensitive)
Ct [4, 26]: 29.107
Molecular Antibiotic Susceptibility Result [4, 17]: Sensitive (Antimicrobial wells with pathogen load detected below the control wells (typically >2 cycle thresholds later) may be reported as Sensitive)
Ct [4, 27]: 27.055
Molecular Antibiotic Susceptibility Result [4, 19]: Sensitive (Antimicrobial wells with pathogen load detected below the control wells (typically >2 cycle thresholds later) may be reported as Sensitive)
Ct [4, 28]: 26.904
Molecular Antibiotic Susceptibility Result [4, 29]: Resistant
Ct ([4]; S. aureus, clinical sample of r85-r92, Ct control avg 20.309): 20.586
